Experimental data as given in ChEMBL document CHEMBL5303304, “EUbOPEN Chemogenomics Library - IncuCyte” (2023).

What was measured:
Assay type in all cases: toxicity, cell-based
Fibroblast = experiment: Incucyte cell viability with human fibroblast; details: 10 µM, compound concentration 10 uM
HEK-293T = experiment: Incucyte cell viability with HEK293T; details: human, 10 µM, compound concentration 10 uM
U2OS = experiment: Incucyte cell viability with U2OS; details: human, 10 µM, compound concentration 10 uM
Also: unitless GR value; below 1 slowed growth and below 0 cell loss.

| Structure (SMILES) | Growth Rate (Fibroblast; 0 h, replicate number 2) | Growth Rate (Fibroblast; 6 h, replicate number 1) | Growth Rate (Fibroblast; 6 h, replicate number 2) | Growth Rate (Fibroblast; 12 h, replicate number 1) | Growth Rate (Fibroblast; 12 h, replicate number 2) | Growth Rate (Fibroblast; 18 h, replicate number 2) | Growth Rate (Fibroblast; 24 h, replicate number 1) | Growth Rate (HEK-293T; 0 h, replicate number 2) | Growth Rate (HEK-293T; 6 h, replicate number 1) | Growth Rate (HEK-293T; 6 h, replicate number 2) | Growth Rate (HEK-293T; 12 h, replicate number 2) | Growth Rate (HEK-293T; 18 h, replicate number 2) | Growth Rate (U2OS; 12 h, replicate number 1) | Growth Rate (U2OS; 18 h, replicate number 1) | Growth Rate (U2OS; 12 h, replicate number 2) | Growth Rate (U2OS; 18 h, replicate number 2) | Growth Rate (U2OS; 24 h, replicate number 1) | Growth Rate (HEK-293T; 18 h, replicate number 1) | Growth Rate (HEK-293T; 24 h, replicate number 1) | Growth Rate (HEK-293T; 24 h, replicate number 2) | also measured |
| --- | --- | --- | --- | --- | --- | --- | --- | --- | --- | --- | --- | --- | --- | --- | --- | --- | --- | --- | --- | --- | --- |
| CC(C)(C[C@H]1CN(S(=O)(=O)c2cccc(C(F)(F)F)c2)c2cc(-c3cc(F)cc(OC(F)F)c3)ccc2O1)C(=O)O [CINTIRORGON] | 0.71 | -0.68 | 0.8 | 0.59 | 0.54 | 0.81 | 0.29 | -0.41 | 0.88 | 0.81 | 0.88 | 0.9 | 0.81 | 0.78 | – | – | – | – | – | – | Growth Rate (Fibroblast; 18 h, replicate number 1): 0.49; Growth Rate (Fibroblast; 24 h, replicate number 2): 0.69; Growth Rate (HEK-293T; 0 h, replicate number 1): 1; Growth Rate (U2OS; 0 h, replicate number 1): 0.78 |
| CCC(=O)O[C@]1(C(=O)CCl)[C@@H](C)C[C@H]2[C@@H]3CCC4=CC(=O)C=C[C@]4(C)[C@@]3(F)[C@@H](O)C[C@@]21C [CLOBETASOL PROPIONATE] | – | 0.53 | – | -1 | – | – | – | – | 0.7 | 1 | – | – | 0.77 | 0.92 | 0.76 | 0.88 | 0.83 | – | – | – | Growth Rate (U2OS; 0 h, replicate number 2): -0.24; Growth Rate (U2OS; 6 h, replicate number 1): -0.15; Growth Rate (U2OS; 6 h, replicate number 2): 0.94 |
| Cc1cc(C(C#N)c2ccc(Cl)cc2)c(Cl)cc1NC(=O)c1cc(I)cc(I)c1O (centres undefined) [CLOSANTEL] | -0.74 | – | – | -1 | – | – | – | 0.76 | 0.13 | 0.49 | 0.84 | 0.87 | – | – | 0.94 | 0.87 | 0.98 | 0.5 | 0.89 | 0.91 | Growth Rate (HEK-293T; 0 h, replicate number 1): 0.61; Growth Rate (HEK-293T; 12 h, replicate number 1): 0.27; Growth Rate (U2OS; 0 h, replicate number 1): 0.36; Growth Rate (U2OS; 0 h, replicate number 2): -1; Growth Rate (U2OS; 6 h, replicate number 2): 0.91; Growth Rate (U2OS; 24 h, replicate number 2): 0.99 |
| Clc1ccccc1C(c1ccccc1)(c1ccccc1)n1ccnc1 [CLOTRIMAZOLE] | 0.29 | – | – | – | – | 1 | 0.82 | -0.96 | – | 0.62 | 0.5 | 0.54 | 0.97 | – | 0.94 | 0.81 | – | 0.79 | 0.72 | 0.41 | Growth Rate (Fibroblast; 0 h, replicate number 1): 0.95; Growth Rate (Fibroblast; 18 h, replicate number 1): 0.54; Growth Rate (HEK-293T; 0 h, replicate number 1): 0.08; Growth Rate (U2OS; 0 h, replicate number 2): 0.7; Growth Rate (U2OS; 6 h, replicate number 2): 0.77; Growth Rate (U2OS; 24 h, replicate number 2): 0.76 |
| COc1c(OCCCN2CCOCC2)ccc2c1N=C(NC(=O)c1cnc(N)nc1)N1CCN=C21 [COPANLISIB] | – | -0.21 | -0.38 | 0.1 | -0.18 | 0.04 | 0.41 | -1 | 0.09 | -0.34 | -0.17 | -0.05 | – | 0.98 | – | 0.9 | 0.96 | 0.12 | 0.18 | -0.04 | Growth Rate (Fibroblast; 18 h, replicate number 1): 0.26; Growth Rate (Fibroblast; 24 h, replicate number 2): 0.24; Growth Rate (HEK-293T; 12 h, replicate number 1): 0.15; Growth Rate (U2OS; 0 h, replicate number 1): -0.44; Growth Rate (U2OS; 6 h, replicate number 1): 0.74; Growth Rate (U2OS; 24 h, replicate number 2): 0.79 |
| O=c1cccc2n1C[C@@H]1CNC[C@H]2C1 [CYTISINICLINE] | – | – | -0.4 | -0.82 | 0.99 | 0.88 | 0.51 | – | – | 0.9 | 0.75 | 0.92 | 0.79 | 0.97 | 0.94 | 0.99 | 0.99 | 0.79 | 0.88 | 0.99 | Growth Rate (Fibroblast; 24 h, replicate number 2): 0.81; Growth Rate (HEK-293T; 12 h, replicate number 1): 0.46 |
